Experimental data reported in US5340818A, “Methods and compositions for inhibiting tumor cell growth” (priority 1993, dated 1994).
Several values for one entry are separate records, joined by “and”; a condition that tells them apart may be missing. Equal values may be shown once. Read-outs that look alike come from different tables or passages of the source.

Columns and labels:
tumors = conditions: literature; cited from earlier work
[1] = test system: DNA synthesis in HL-60 cells; assay: Inhibition of [3H-methyl]dThd incorporation into DNA of HL-60 cells; format: cell-based, human; conditions: Homo sapiens, HL-60, at 0.03 mg/mL; read-out: % Inhibition of Precursor Incorporation, DNA
Protocol: (§1) For the precursor incorporation studies, each compound (in 0.3% dimethylsulfoxide) was preincubated with HL-60 cells (a human promyelocytic leukemic cell line) 2.2×10^6 /ml, for 15 min prior to the addition of the labeled precursor (obtained from ICN Radiochemicals, Irvine, Calif.) and then incubated for 30 min. The precursors used for incorporation into DNA, RNA and protein were [^3 H-methyl]dThd (1 μCi, 0.15 nmole/ml), [5-^3 H]Cyd (5 μCi, 0.23 nmol/ml), and [2,3,4,5-^3 H]L-Leu (0.5 μCi, 0.004 nmol/ml), respectively. Incorporation of radioactivity in the absence of a plant compound and in the presence of dimethylsulfoxide was used as a control.
Human promyelocytic cells (HL-60) were incubated with [^3 H-methyl]dTHDin the presence and absence of a plant alkaloid.

[2] = test system: RNA synthesis in HL-60 cells; assay: Inhibition of [5-3H]Cyd incorporation into RNA of HL-60 cells; format: cell-based, human; conditions: Homo sapiens, HL-60, 0.5 h
Protocol: as §1, with “control. The control values for incorporation into DNA, RNA and protein were 8,500, 5,600 and 1,700 cpm/10^6 cells, respectively. The incubation conditions and the procedures for isolating DNA, RNA and protein fractions have been previously described (Chou, T. -C., et al., Cancer Res., 43:3074-3079 (1983)) .” for “control.”
(§2) HL-60 cells were incubated with [5-^3 H]Cyd or [2,3,4,5-^3 H]L-Leu in the presence and absence of alkaloids (0.03 mg/ml) in order to find the effects of the alkaloid on the incorporation of labeled precursors into RNA or protein. […] Over 90% of RNA and protein biosynthesis were inhibited by compounds 11, 16, 17, 22, 28, 29and 30 (Table 1). […] In most cases, the amount required to inhibit precursor incorporation into DNA was less than that to inhibit precursor incorporation into RNA or protein (i.e. DNA synthesis is inhibited most potently).

[3] = test system: protein synthesis in HL-60 cells; assay: Inhibition of [2,3,4,5-3H]L-Leu incorporation into protein of HL-60 cells; format: cell-based, human; conditions: Homo sapiens
Protocol: as §1, with “control. The control values for incorporation into DNA, RNA and protein were 8,500, 5,600 and 1,700 cpm/10^6 cells, respectively. The incubation conditions and the procedures for isolating DNA, RNA and protein fractions have been previously described (Chou, T. -C., et al., Cancer Res., 43:3074-3079 (1983)) .” for “control.”
as §2

HL-60 cells = assay: HL-60 cell growth inhibition, 72 h; format: cell-based, human; conditions: HL-60, 72 h; for IC50: Homo sapiens, read-out: Cell Growth Inhibition, IC50
Protocol: For growth inhibition studies, HL-60 cells (1.5×10^5 /ml) were grown in RPMI 1640 media (GIBCO, Grand Island, N.Y.) at 37° C. in humidified 5% CO2 for 72 h. Viable cells were determined using trypan blue exclusion and counted in a hemocytometer. The fractional inhibition for each compound concentration (0.0025-0.05 mg/ml in 0.1% dimethylsulfoxide) was analyzed with the median-effect plot using a computer program (Chou, T. -C and P. Talalay, Adv. Enzyme Regul., 22:27-55 (1984); Chou, J. and T. -C. thou, Dose-Effect analysis with microcomputers: Quantitation of ED50, LD50, synergism, antagonism, low-dose risk, receptor ligand binding and enzyme kinetics. A computer software disk for Apple II series or IBM-PC and manual. Elsevier Science Publishers, Elsevier-BioSoft, Cambridge, United Kingdom (1986)). The median-effect concentration (IC50) was determined automatically for three to five dose-effect levels. Cell growth in the absence of plant compound and in the presence of dimethylsulfoxide was used as a control. Dimethylsulfoxide alone inhibited cell growth 3.9%±1.5% during the 72 h incubation period. Those data with negative values represent activations.

L1210 leukemia = L1210 leukemia survival time evaluation in BDF1 mice; conditions: for Day 6 AWC / MST / N/T (nine day survivors/total mice) / Survival Time, individual mice / % ILS (increase in lifespan): day 1, QDX4 ip; for % ILS (increase in lifespan): 25% or greater indicates activity; for antileukemic activity, in words: L1210, BDF mice, low doses, ip
[4] = at 0.03 mg/mL, read-out: % Inhibition of Precursor Incorporation, RNA
[5] = HL-60, at 0.03 mg/mL, read-out: % Inhibition of Precursor Incorporation, Protein

Structure (SMILES) | inhibition at 30 µg/mL [1] | inhibition at 30 µg/mL [2, 4] | inhibition at 30 µg/mL [3, 5] | cell growth inhibition, in words (HL-60 cells) | IC50 (HL-60 cells) | Day 6 AWC (L1210 leukemia; 6.25 mg/kg) | MST (L1210 leukemia; 6.25 mg/kg) | N/T (nine day survivors/total mice) (L1210 leukemia; 6.25 mg/kg) | Survival Time, individual mice (L1210 leukemia; 6.25 mg/kg) | % ILS (increase in lifespan) (L1210 leukemia; 6.25 mg/kg) | antileukemic activity, in words (L1210 leukemia) | further results
CN(C)CCOc1cc2c(c3c1c(=O)c1ccccc1n3C)C=CC(C)(C)O2 [Compound 2, O-(dimethylaminoethyl)noracronycine] |  |  |  |  |  |  |  |  |  |  |  | antitumor activity, in words (tumors): significant antitumor activity
COc1cc(O)c2c(=O)c3cccc(OC)c3n(C)c2c1OC [Compound 17, 5-O-Methyl-citrusinine-I] | 93.4% | 96.4% | 93% | significant activity against leukemic cells in vitro | 2.7 µg/mL and 8.6 µM | +1.8 g | 7.0 | 0/2 | 7 | 0% | not active | Day 6 AWC (L1210 leukemia; 12.5 mg/kg): +1.5 g; MST (L1210 leukemia; 12.5 mg/kg): 7.0; N/T (nine day survivors/total mice) (L1210 leukemia; 12.5 mg/kg): 0/2; Survival Time, individual mice (L1210 leukemia; 12.5 mg/kg): 7; % ILS (increase in lifespan) (L1210 leukemia; 12.5 mg/kg): 0%
CC1(C)C=Cc2c(cc(O)c3c(=O)c4cccc(O)c4[nH]c23)O1 [Compound 34, Atalaphyllidine] | 78.9% |  |  | comparable activity | 1.3 µg/mL and 4.2 µM | +1.7 g | 7.0 | 0/2 | 7 | 0% | evidence of antileukemic activity | inhibition at 30 µg/mL ([2]; read-out: % Inhibition of Precursor Incorporation, RNA, at 0.03 mg/mL): 94.8%; inhibition at 30 µg/mL ([3]; HL-60, read-out: % Inhibition of Precursor Incorporation, Protein, at 0.03 mg/mL): 82.9%; Day 6 AWC (L1210 leukemia; 25 mg/kg): +1.5 g; MST (L1210 leukemia; 25 mg/kg): 7.5; N/T (nine day survivors/total mice) (L1210 leukemia; 25 mg/kg): 0/2; % ILS (increase in lifespan) (L1210 leukemia; 25 mg/kg): 7%; Survival Time, individual mice (L1210 leukemia; 25 mg/kg, listed as SK 32090): 7 and 8
CC(C)=CCc1c2c(c3[nH]c4ccccc4c(=O)c3c1O)C=CC(C)(C)O2 [Compound 36, Severifoline] | 20% |  |  |  | > 40 µg/mL and > 111 µM |  |  |  |  |  |  | antitumor activity, in words (tumors): no antitumor activity
Cn1c2c(O)cccc2c(=O)c2c(O)cc3c(c21)C=CC(C)(C)O3 [Compound 37, 11-Hydroxy-noracronycine] | 98.6% | 96.6% | 95.3% | comparable activity | 2.3 µg/mL and 7.1 µM | +2.0 g | 7.0 | 0/2 | 7 | 0% | not active | Day 6 AWC (L1210 leukemia; 25 mg/kg): +1.8 g; MST (L1210 leukemia; 25 mg/kg): 7.0; N/T (nine day survivors/total mice) (L1210 leukemia; 25 mg/kg): 0/2; Survival Time, individual mice (L1210 leukemia; 25 mg/kg): 7; % ILS (increase in lifespan) (L1210 leukemia; 25 mg/kg): 0%
COc1ccc2c(=O)c3c(O)cc4c(c3n(C)c2c1OC)C=CC(C)(C)O4 [Compound 44, Citracridone-II] | 77.6% | 96.4% | 62.7% |  | > 40 µg/mL and > 109 µM |  |  |  |  |  |  | 
COc1ccc2c(=O)c3c(OC)cc4c(c3n(C)c2c1OC)C=CC(C)(C)O4 [Compound 45, 6-O-Methylcitracridone-II] | 98.7% | 37.8% | 49.8% | significantly active | 5.9 µg/mL and 15.5 µM |  |  |  |  |  |  | 
